Source: patent US12180187B2, “1-phenyl-5-azinylpyrazolyl-3-oxyalkyl acids and their use for controlling unwanted plant growth” (BAYER AKTIENGESELLSCHAFT, priority 2019, dated 2024)

Key:
DIGSA [1] = assay: Pre-emergence action against DIGSA, 1280 g/ha; type: in vivo, Digitaria sanguinalis; details: visual scoring after about 3 weeks vs untreated controls, 100% = plants have died, 0% = like control plants
In short: (§1)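 Soil-surface application after sowing, before emergence: WP or EC formulations in water with 0.5% additive, 600 litres per hectare, onto sandy loam pots. Damage rated visually in % relative to untreated plants after roughly 3 weeks in a greenhouse.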

LOLRI [2] = assay: Pre-emergence action against LOLRI, 1280 g/ha; type: in vivo, Lolium rigidum; details: visual scoring after about 3 weeks vs untreated controls, 100% = plants have died, 0% = like control plants
In short: as §1

AVEFA = assay: Pre-emergence action at 320 g/ha against AVEFA; type: in vivo; details: visual scoring after about 3 weeks vs untreated controls
In short: (§2)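 Visual % scoring at about 3 weeks post-treatment against untreated pots (0% = like control, 100% = dead), greenhouse-grown. Compounds applied at 320 g/ha as aqueous WP/EC suspension or emulsion plus 0.5% additive, 600 l/ha water, onto covering soil of freshly sown pots before emergence.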

VERPE = assay: Pre-emergence action at 320 g/ha against VERPE; type: in vivo, Veronica persica; details: visual scoring after about 3 weeks vs untreated controls
In short: as §2

VIOTR [3] = assay: Pre-emergence action at 320 g/ha against VIOTR; type: in vivo, Viola tricolor; details: dosage 320 g/ha
In short: as §2

ALOMY [4] = assay: Post-emergence action against ALOMY, 1.28 kg/ha; type: in vivo, Alopecurus myosuroides; details: dosage 1280 g/ha, visual rating about 3 weeks after treatment vs untreated controls
In short: (§3)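 Post-emergence greenhouse spray, one-leaf stage (2–3 wk after sowing), sandy loam. WP/EC, aqueous + 0.5% additive, 600 L/ha water. Visual % activity vs untreated, ~3 wk after treatment; 100% = plants dead.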

DIGSA [5] = assay: Post-emergence action against DIGSA, 1.28 kg/ha; type: in vivo, Digitaria sanguinalis; details: dosage 1280 g/ha, visual rating about 3 weeks after treatment vs untreated controls
In short: as §3

ECHCG = assay: Post-emergence action against ECHCG, 1.28 kg/ha; type: in vivo, Echinochloa crus-galli; details: dosage 1280 g/ha, visual rating about 3 weeks after treatment vs untreated controls
In short: as §3

LOLRI [6] = assay: Post-emergence action against LOLRI, 1.28 kg/ha; type: in vivo, Lolium rigidum; details: dosage 1280 g/ha, visual rating about 3 weeks after treatment vs untreated controls
In short: as §3

SETVI = assay: Post-emergence action against SETVI, 1.28 kg/ha; type: in vivo, Setaria viridis; details: dosage 1280 g/ha, visual rating about 3 weeks after treatment vs untreated controls
In short: as §3

ABUTH = assay: Post-emergence action against ABUTH, 1.28 kg/ha; type: in vivo, Abutilon theophrasti; details: dosage 1280 g/ha, visual rating about 3 weeks after treatment vs untreated controls (100% = plants died)
In short: as §3

AMARE = assay: Post-emergence action against AMARE, 1.28 kg/ha; type: in vivo, Amaranthus retroflexus; details: dosage 1280 g/ha, visual rating about 3 weeks after treatment vs untreated controls (100% = plants died)
In short: as §3

MATIN = assay: Post-emergence action against MATIN, 1.28 kg/ha; type: in vivo, Tripleurospermum inodorum (Matricaria inodora); details: dosage 1280 g/ha, visual rating about 3 weeks after treatment vs untreated controls (100% = plants died)
In short: as §3

ALOMY [7] = assay: Post-emergence action against ALOMY, 320 g/ha; type: in vivo, Alopecurus myosuroides; details: dosage 320 g/ha, visual rating about 3 weeks after treatment vs untreated controls (100% = plants died)
In short: (§4)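 Visual % activity vs untreated controls (0% = like control, 100% = plants dead), scored ~3 wk after treatment. Plants were grown in sandy loam in a greenhouse and sprayed on green parts at the one-leaf stage (2–3 wk post-sowing). Spray: WP or EC in water, 0.5% additive, 600 l/ha.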

VIOTR [8] = assay: Post-emergence action at 320 g/ha against VIOTR; type: in vivo, Viola tricolor; details: visual rating about 3 weeks after treatment vs untreated controls
In short: as §4

SMILES	Pre-emergence action against DIGSA (DIGSA [1]) [%]	Pre-emergence action against LOLRI (LOLRI [2]) [%]	Pre-emergence action against AVEFA in % (AVEFA) [%]	Pre-emergence action against VERPE in % (VERPE) [%]	Pre-emergence action against VIOTR in % (VIOTR [3]) [%]	Post-emergence action against ALOMY (ALOMY [4]) [%]	Post-emergence action against DIGSA (DIGSA [5]) [%]	Post-emergence action against ECHCG (ECHCG) [%]	Post-emergence action against LOLRI (LOLRI [6]) [%]	Post-emergence action against SETVI (SETVI) [%]	Post-emergence action against ABUTH (ABUTH) [%]	Post-emergence action against AMARE (AMARE) [%]	Post-emergence action against MATIN (MATIN) [%]	Post-emergence action against ALOMY (ALOMY [7]) [%]	Post-emergence action against VIOTR in % (VIOTR [8]) [%]	also measured
CCOC(=O)C(C)Oc1nn(-c2ccccc2F)c(-c2ccc(F)nc2)c1C(F)(F)F (stereo not drawn) [VII-066]	100	100	90	100	100	100	100	100	100	90	90	90	90	90	80	
CCOC(=O)COc1nn(-c2ccccc2F)c(-c2ccc(F)nc2)c1C [VII-117]	100	100	100	90	100		100	100	100			100	90	90	80	
COC(=O)[C@H](C)Oc1nn(-c2cc(F)ccc2F)c(-c2ccc(F)nc2)c1Br [VII-107]	100	90	90	80	100	100	100	100		90	90	100	100	90	80	
COC(=O)[C@@H](C)Oc1nn(-c2cc(F)ccc2F)c(-c2ccc(F)nc2)c1Br [VII-062]	100	100	100	100	100	100	100	100	100					90	80	
O=C(COc1nn(-c2ccccc2F)c(-c2ccc(F)nc2)c1Br)OCC1CCOC1 (stereo not drawn) [VII-091]	100	100	90	100	100	100	100	100	100	90	90	90	90	90		
CCOC(=O)COc1nn(-c2ccccc2F)c(-c2ccc(F)nc2)c1I [VII-036]	100	100		100	100	100	100	90	100	90	90	100	100	90	80	
COC(=O)CNC(=O)COc1nn(-c2ccccc2F)c(-c2ccc(F)nc2)c1C(F)(F)F [Example X-007]	100	100	100	100	100	100	100	100	100	100	90	90	90	100	80	
CCOC(=O)COc1nn(-c2ccccc2F)c(-c2ccnc(F)c2)c1Br [VIII-003, Ethyl {[4-bromo-1-(2-fluorophenyl)-5-(2-fluoropyridin-4-yl)-1H-pyrazol-3-yl]oxy}acetate]									100	100	90	90		90		pest or weed control at 1280 g/ha (LOLRI [2]; Lolium rigidum, 504 h): 90%; pest or weed control at 320 g/ha (AVEFA; Avena fatua, 504 h): 90%; pest or weed control at 320 g/ha (VERPE; Veronica persica, 504 h): 90%; pest or weed control at 320 g/ha (VIOTR [3]; Viola tricolor, 504 h): 100%; pest or weed control at 1280 g/ha (ECHCG; Echinochloa crus-galli, 504 h): 100%; pest or weed control at 320 g/ha (VIOTR [8]; Viola tricolor, 504 h): 80%
O=C(COc1nn(-c2ccccc2F)c(-c2ccc(F)nc2)c1Br)OCC1OCCO1 [VII-103]	100	100	90	100	100	100	100	100	100	90		90	90	100		
COCCOC(=O)COc1nn(-c2ccccc2F)c(-c2ccc(F)nc2)c1Br [VII-052]	100	100	90	90	100	100	100	100		90	90	90	100	90	80	
COC(=O)[C@@H](C)Oc1nn(-c2cc(F)ccc2F)c(-c2cncc(F)c2)c1C#N [VII-147]	100	100	100	100	100	100	100	100	100	90	90	100	100	90		
CCOC(=O)C(C)Oc1nn(-c2ccccc2F)c(-c2ccc(F)nc2)c1I (stereo not drawn) [VII-057]	100	100	90		100	100	100	100		100		100	100	80	80	
